In patent US8207177B2, “Inhibitors of E1 activating enzymes” (Millennium Pharmaceuticals, Inc., priority 2006, dated 2012):

Each compound was assayed against T1, recombinant human NAE enzyme (Homo sapiens, UniProt Q8TBC4) (assay: Nedd8-Activating Enzyme (NAE) HTRF Assay). Details: threshold statement: less than or equal to 100 nM; 20 μM ATP, 90 minutes at 24° C.
T1 construct: His (N); made in house; host or cells: Sf9 insect cells (baculovirus, Bac-to-Bac), purified on Ni-NTA
T1 sequence (Q8TBC4 1-463): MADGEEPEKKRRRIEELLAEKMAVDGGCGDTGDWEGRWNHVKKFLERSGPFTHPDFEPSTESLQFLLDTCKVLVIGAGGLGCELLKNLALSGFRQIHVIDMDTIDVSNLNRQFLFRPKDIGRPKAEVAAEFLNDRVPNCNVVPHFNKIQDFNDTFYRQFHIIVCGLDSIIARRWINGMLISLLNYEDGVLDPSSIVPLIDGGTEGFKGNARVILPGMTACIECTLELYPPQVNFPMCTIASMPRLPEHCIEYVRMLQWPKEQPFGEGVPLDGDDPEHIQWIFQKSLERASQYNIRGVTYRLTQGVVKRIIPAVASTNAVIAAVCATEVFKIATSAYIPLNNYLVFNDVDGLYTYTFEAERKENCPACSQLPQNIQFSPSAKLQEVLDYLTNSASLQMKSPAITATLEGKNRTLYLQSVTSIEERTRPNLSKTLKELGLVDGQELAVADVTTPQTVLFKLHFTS
T1 sequence (Q13564 1-534 partner): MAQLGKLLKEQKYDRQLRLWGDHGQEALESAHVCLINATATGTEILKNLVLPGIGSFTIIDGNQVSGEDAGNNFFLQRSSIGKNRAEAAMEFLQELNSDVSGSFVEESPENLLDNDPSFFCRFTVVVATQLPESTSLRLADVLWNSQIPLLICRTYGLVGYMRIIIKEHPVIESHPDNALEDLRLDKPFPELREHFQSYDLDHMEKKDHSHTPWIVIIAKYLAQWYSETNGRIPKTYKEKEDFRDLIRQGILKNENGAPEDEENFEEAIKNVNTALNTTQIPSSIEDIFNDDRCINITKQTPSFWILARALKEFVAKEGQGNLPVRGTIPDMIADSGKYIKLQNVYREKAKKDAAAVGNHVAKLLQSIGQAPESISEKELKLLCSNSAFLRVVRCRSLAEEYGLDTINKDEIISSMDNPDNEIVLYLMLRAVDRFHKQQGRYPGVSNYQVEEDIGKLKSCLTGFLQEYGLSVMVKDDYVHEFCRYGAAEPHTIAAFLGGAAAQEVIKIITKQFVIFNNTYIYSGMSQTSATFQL
Assay type: biochemical
Outline: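 Sf9-expressed NAEα/His-NAEβ complex (0.28 nM) with 0.075 μM Nedd8-Flag, 0.01 μM Ubc12-GST, 20 μM ATP in 50 mM HEPES pH 7.5, 5 mM MgCl2, 250 μM GSH, 0.05% BSA; 90 min at 24 °C. EDTA stop, then Eu-cryptate anti-FLAG/XL-APC anti-GST detection for 3 h at 24 °C, HTRF read-out.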

IC50, ≤ 100 nM:
C[C@@H]1Cc2ccccc2[C@@H]1Nc1ncnc2c1ccn2[C@@H]1C[C@@H](COS(N)(=O)=O)[C@@H](O)C1 [Compound I-81, [(1S,2S,4R)-2-hydroxy-4-(4-{[(1R,2R)-2-methyl-2,3-dihydro-1H-inden-1-yl]amino)-7H-pyrrolo[2,3-d]pyrimidin-7-yl)cyclopentyl]methyl sulfamate]
NS(=O)(=O)OC[C@@H]1C[C@@H](n2ccc3c(NCC4CCCCC4)ncnc32)C[C@@H]1O [Compound I-29, ((1S,2S,4R)-4-{4-[(cyclohexylmethyl)amino]-7H-pyrrolo[2,3-d]pyrimidin-7-yl)-2-hydroxycyclopentyl)methyl sulfamate]
C[C@@H](Nc1ncnc2c1ccn2[C@@H]1C[C@@H](COS(N)(=O)=O)[C@@H](O)C1)c1ccccc1 [Compound I-7, [(1S,2S,4R)-2-hydroxy-4-(4-{[(1R)-1-phenylethyl]amino}-7H-pyrrolo[2,3-d]-pyrimidin-7-yl)cyclopentyl]methyl sulfamate]
NS(=O)(=O)OC[C@@H]1C[C@@H](n2ccc3c(NCc4ccc(Cl)cc4)ncnc32)[C@H](O)[C@@H]1O [Compound I-22, ((1S,2R,3S,4R)-4-{4-[(4-chlorobenzyl)amino]-7H-pyrrolo[2,3-d]pyrimidin-7-yl)-2,3-dihydroxycyclopentyl)methyl sulfamate]
NS(=O)(=O)OC[C@@H]1C[C@@H](n2ccc3c(NCc4ccccc4OC(F)F)ncnc32)C[C@@H]1O [Compound I-2, [(1S,2S,4R)-4-(4-{[2-(difluoromethoxy)benzyl]amino}-7H-pyrrolo[2,3-d]-pyrimidin-7-yl)-2-hydroxycyclopentyl]methyl sulfamate]
CO[C@H]1Cc2ccccc2[C@H]1Nc1ncnc2c1ccn2[C@@H]1C[C@@H](CNS(N)(=O)=O)[C@@H](O)C1 [Compound I-74, N-{[(1S,2S,4R)-2-hydroxy-4-(4-{[(1R,2S)-2-methoxy-2,3-dihydro-1H-inden-1-yl]amino}-7H-pyrrolo[2,3-d]pyrimidin-7-yl)cyclopentyl]methyl}sulfamide]
NS(=O)(=O)OC[C@@H]1C[C@@H](n2ccc3c(N[C@H]4CCc5c(Cl)cccc54)ncnc32)C[C@@H]1O [Compound I-64, [(1S,2S,4R)-4-(4-{[(1S)-4-chloro-2,3-dihydro-1H-inden-1-yl]amino}-7H-pyrrolo[2,3-d]pyrimidin-7-yl)-2-hydroxycyclopentyl]methyl sulfamate]
C[C@H](Nc1ncnc2c1ccn2[C@@H]1C[C@@H](COS(N)(=O)=O)[C@@H](O)C1)c1ccccc1 [Compound I-4, [(1S,2S,4R)-2-hydroxy-4-(4-{[(1S)-1-phenylethyl]amino}-7H-pyrrolo[2,3-d]-pyrimidin-7-yl)cyclopentyl]methyl sulfamate]
NS(=O)(=O)OC[C@@H]1C[C@@H](n2ccc3c(NCc4ccccc4)ncnc32)C[C@@H]1O [Compound I-49, {(1S,2S,4R)-4-[4-(benzylamino)-7H-pyrrolo[2,3-d]pyrimidin-7-yl]-2-hydroxycyclopentyl}methyl sulfamate]
NS(=O)(=O)OC[C@@H]1C[C@@H](n2ccc3c(NCc4cccc(Cl)c4)ncnc32)C[C@@H]1O [Compound I-51, ((1S,2S,4R)-4-{4-[(3-chlorobenzyl)amino]-7H-pyrrolo[2,3-d]pyrimidin-7-yl}-2-hydroxycyclopentyl)methyl sulfamate]
NS(=O)(=O)OC[C@@H]1C[C@@H](n2ccc3c(NCc4ccc(Cl)c(Cl)c4)ncnc32)C[C@@H]1O [Compound I-24, ((1S,2S,4R)-4-{4-[(3,4-dichlorobenzyl)amino]-7H-pyrrolo[2,3-d]pyrimidin-7-yl}-2-hydroxycyclopentyl)methyl sulfamate]
NS(=O)(=O)OC[C@@H]1C[C@@H](n2ccc3c(NCc4cc(Cl)cc(Cl)c4)ncnc32)C[C@@H]1O [Compound I-16, ((1S,2S,4R)-4-{4-[(3,5-dichlorobenzyl)amino]-7H-pyrrolo[2,3-d]pyrimidin-7-yl}-2-hydroxycyclopentyl)methyl sulfamate]
NS(=O)(=O)OC[C@@H]1C[C@@H](n2cc(F)c3c(N[C@H]4CCc5ccccc54)ncnc32)C[C@@H]1O [Compound I-68, ((1S,2S,4R)-4-{4-[(1S)-2,3-dihydro-1H-inden-1-ylamino]-5-fluoro-7H-pyrrolo[2,3-d]pyrimidin-7-yl}-2-hydroxycyclopentyl)methyl sulfamate]
NS(=O)(=O)OC[C@@H]1C[C@@H](n2ccc3c(NCc4ccccc4Cl)ncnc32)C[C@@H]1O [Compound I-1, ((1S,2S,4R)-4-{4-[(2-chlorobenzyl)amino]-7H-pyrrolo[2,3-d]pyrimidin-7-yl}-2-hydroxycyclopentyl)methyl sulfamate]
NS(=O)(=O)NC[C@@H]1C[C@@H](n2ccc3c(N[C@H]4CCc5ccccc54)ncnc32)C[C@@H]1O [Compound I-56, N-[((1S,2S,4R)-4-{4-[(1S)-2,3-dihydro-1H-inden-1-ylamino]-7H-pyrrolo[2,3-d]-pyrimidin-7-yl}-2-hydroxycyclopentyl)methyl]sulfamide]
CO[C@H]1Cc2ccccc2[C@H]1Nc1ncnc2c1c(F)cn2[C@@H]1C[C@@H](COS(N)(=O)=O)[C@@H](O)C1 [Compound I-69, [(1S,2S,4R)-4-(5-fluoro-4-{[(1R,2S)-2-methoxy-2,3-dihydro-1H-inden-1-yl]amino}-7H-pyrrolo[2,3-d]pyrimidin-7-yl)-2-hydroxycyclopentyl]methyl sulfamate]
Cc1cc(Cl)ccc1CNc1ncnc2c1ccn2[C@@H]1C[C@@H](COS(N)(=O)=O)[C@@H](O)C1 [Compound I-48, ((1S,2S,4R)-4-{4-[(4-chloro-2-methylbenzyl)amino]-7H-pyrrolo[2,3-d]pyrimidin-7-yl}-2-hydroxycyclopentyl)methyl sulfamate]
NS(=O)(=O)OC[C@@H]1C[C@@H](n2ccc3c(N[C@H]4CCc5c(F)cccc54)ncnc32)C[C@@H]1O [Compound I-61, [(1S,2S,4R)-4-(4-{[(1S)-4-fluoro-2,3-dihydro-1H-inden-1-yl]amino}-7H-pyrrolo[2,3-d]pyrimidin-7-yl)-2-hydroxycyclopentyl]methyl sulfamate]
COc1ccccc1CNc1ncnc2c1ccn2[C@@H]1C[C@@H](COS(N)(=O)=O)[C@@H](O)C1 [Compound I-43, ((1S,2S,4R)-2-hydroxy-4-{4-[(2-methoxybenzyl)amino]-7H-pyrrolo[2,3-d]-pyrimidin-7-yl)cyclopentyl)methyl sulfamate]
NS(=O)(=O)OC[C@@H]1C[C@@H](n2cnc3c(NCc4ccc(Cl)cc4)ncnc32)C[C@@H]1O [Compound I-23, ((1S,2S,4R)-4-{6-[(4-chlorobenzyl)amino]-9H-purin-9-yl}-2-hydroxycyclopentyl)methyl sulfamate]
